Experimental findings from ChEMBL document CHEMBL3091356, “Salen and tetrahydrosalen derivatives act as effective inhibitors of the tumor-associated carbonic anhydrase XII--a new scaffold for designing isoform-selective inhibitors” (Bioorg Med Chem Lett, 2013) are described below.

One may read the Ki as the dissociation constant of the complex between target and ligand, obtained from inhibition or displacement.

One test has as its target Carbonic anhydrase 9 (Homo sapiens, UniProt Q16790).
For a further test, the target named is Carbonic anhydrase 1 (Homo sapiens, UniProt P00915). The experiment in a line: Inhibition of human recombinant carbonic anhydrase 1-mediated CO2 hydration preincubated for 15 mins by stopped-flow assay.
Chain of Carbonic anhydrase 1 (P00915 whole entry): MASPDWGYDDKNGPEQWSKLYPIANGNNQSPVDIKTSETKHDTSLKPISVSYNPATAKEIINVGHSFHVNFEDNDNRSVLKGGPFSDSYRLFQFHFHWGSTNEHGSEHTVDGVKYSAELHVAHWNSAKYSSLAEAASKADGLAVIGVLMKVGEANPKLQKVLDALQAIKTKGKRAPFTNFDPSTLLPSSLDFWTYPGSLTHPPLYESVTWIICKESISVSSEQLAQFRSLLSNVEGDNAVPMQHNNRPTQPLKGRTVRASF
A further test has as its target Carbonic anhydrase 2 (Homo sapiens, UniProt P00918). The experiment in a line: Inhibition of human recombinant carbonic anhydrase 2-mediated CO2 hydration preincubated for 15 mins by stopped-flow assay.
The next test concerns the target Carbonic anhydrase 12 (Homo sapiens, UniProt O43570). The experiment in a line: Inhibition of human recombinant carbonic anhydrase 12-mediated CO2 hydration preincubated for 15 mins by stopped-flow assay.

Chain of Carbonic anhydrase 12 (O43570 whole entry): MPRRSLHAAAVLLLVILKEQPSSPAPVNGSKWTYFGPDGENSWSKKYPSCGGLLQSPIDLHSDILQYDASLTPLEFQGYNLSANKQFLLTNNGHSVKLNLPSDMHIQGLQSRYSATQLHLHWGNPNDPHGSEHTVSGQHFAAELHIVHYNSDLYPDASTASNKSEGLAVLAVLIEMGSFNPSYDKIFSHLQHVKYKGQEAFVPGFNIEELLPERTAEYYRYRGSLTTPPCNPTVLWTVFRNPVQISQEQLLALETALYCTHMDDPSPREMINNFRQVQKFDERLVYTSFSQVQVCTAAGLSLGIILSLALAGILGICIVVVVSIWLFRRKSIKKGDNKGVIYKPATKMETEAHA
Description for Carbonic anhydrase 9: Inhibition of human recombinant carbonic anhydrase 9-mediated CO2 hydration preincubated for 15 mins by stopped-flow assay

Turning to `Oc1ccccc1/C=N/c1ccccc1/N=C/c1ccccc1O`, the Ki on Carbonic anhydrase 9 was 2.45 µM; on Carbonic anhydrase 1, > 100 µM.

In the case of `O=[N+]([O-])c1ccccc1/C=N/CCCCCC/N=C/c1ccccc1[N+](=O)[O-]`, the Ki at Carbonic anhydrase 9, on Carbonic anhydrase 1 and at Carbonic anhydrase 2 was > 100 µM in each case.

Take `Oc1ccccc1CNCCCCNCc1ccccc1O`: the Ki was 4.37 µM on Carbonic anhydrase 9 and > 100 µM on Carbonic anhydrase 1.

For `Oc1ccccc1/C=N/CCC/N=C/c1ccccc1O`, the Ki at Carbonic anhydrase 9 is 15.7 µM; on Carbonic anhydrase 1 it was > 100 µM.

On to `Oc1ccccc1CNCCCCCCNCc1ccccc1O`, for which the values for the Ki on Carbonic anhydrase 9 and at Carbonic anhydrase 1 were 2.51 µM and > 100 µM, respectively.

As to `Oc1ccccc1CNCCNCc1ccccc1O`, the Ki at Carbonic anhydrase 9 and on Carbonic anhydrase 1 was > 100 µM throughout.

Take `Oc1ccccc1/C=N/CCCCCC/N=C/c1ccccc1O`: the Ki on Carbonic anhydrase 9 is 4.35 µM; on Carbonic anhydrase 1, > 100 µM; on Carbonic anhydrase 12 it was 0.43 µM; at Carbonic anhydrase 2, 3.6 µM.

Take `COc1cccc(/C=N/CC/N=C/c2cccc(OC)c2O)c1O`: the Ki at Carbonic anhydrase 9, on Carbonic anhydrase 1 and at Carbonic anhydrase 2 was > 100 µM each time.

As for `Oc1ccccc1CNc1ccccc1NCc1ccccc1O`, the inhibitory constant (Ki) at Carbonic anhydrase 9 is 0.22 µM; at Carbonic anhydrase 1, > 100 µM.

As for `Oc1ccccc1/C=N/CCCCC/N=C/c1ccccc1O`, the Ki on Carbonic anhydrase 9 was 4.47 µM; at Carbonic anhydrase 1, > 100 µM.

Regarding `Oc1ccccc1/C=N/CC/N=C/c1ccccc1O`, the Ki was > 100 µM on Carbonic anhydrase 9, > 100 µM at Carbonic anhydrase 1, 0.28 µM at Carbonic anhydrase 12 and 1.72 µM at Carbonic anhydrase 2.

With `Oc1ccccc1/C=N/CCCC/N=C/c1ccccc1O`, the Ki on Carbonic anhydrase 1 is > 100 µM.

For the compound `Oc1ccccc1CNCCCNCc1ccccc1O`, the Ki on Carbonic anhydrase 9 was 3.37 µM; at Carbonic anhydrase 1, > 100 µM; on Carbonic anhydrase 12, 0.04 µM; on Carbonic anhydrase 2 it was 0.39 µM.

As for `Oc1ccccc1CNCCCCCNCc1ccccc1O`, the Ki at Carbonic anhydrase 9 is 4.19 µM; on Carbonic anhydrase 1 it was > 100 µM.
